{"source": "patent US20100298141A1", "about": "“SUBSTITUTED PYRIDINE N-OXIDE HERBICIDES” (E. I. DU PONT DE NEMOURS AND COMPANY, priority 2007, published 2010)", "assay_in_all_cases": "Test F preemergence test", "settings_in_all_cases": "scale 0 to 100", "key": {"[1]": {"test_system": "kochia", "type": "in vivo, Kochia scoparia", "description": "(§1) Seeds of plant species selected from bermudagrass (Cynodon dactylon), Surinam grass (Brachiaria decumbens), large crabgrass (Digitaria sanguinalis), green foxtail (Setaria viridis), goosegrass (Eleusine indica), johnsongrass (Sorghum halepense), kochia (Kochia scoparia), pitted morningglory (Ipomoea lacunosa), purple nutsedge (Cyperus rotundus), common ragweed (Ambrosia elation), mustard (Brassica nigra), guineagrass (Panicum maximum), […] (Paspalum dilatatum), barnyardgrass (Echinochloa crus-galli), southern sandbur (Cenchrus echinatus), common sowthistle (Sonchus oleraceous), prickly […] spinosa), Italian ryegrass (Lolium multiflorum), common purslane (Portulaca oleracea), broadleaf signalgrass (Brachiaria platyphylla), common groundsel (Senecio vulgaris), common chickweed (Stellaria media), Virginia dayflower (Commelina virginica), annual bluegrass (Poa annua), naked crabgrass (Digitaria nuda), […] cochinchinensis), quackgrass (Elytrigia repens), Canada horseweed (Conyza canadensis), field bindweed (Convolvulus arvensis), […] (Bidens bipinnata), common mallow (Malva sylvestris), Russian thistle (Salsola kali), and sugarcane (Saccharum officinarum) were planted and treated preemergence with test chemicals formulated in a non-phytotoxic solvent mixture which included a surfactant. At a different time, sugarcane was treated with postemergence applications of some of the test chemicals formulated in the same manner. Plants were approximately 3- to 4-leaf stage for the postemergence treatments. Treated plants and controls were maintained in a greenhouse for 14 to 21 days, after which time all species were compared to controls and visually evaluated. […] A dash (-) response means no test result."}, "[2]": {"test_system": "southern sandbur", "type": "in vivo, Cenchrus echinatus", "description": "as §1"}, "[3]": {"test_system": "purple nutsedge", "type": "in vivo, Cyperus rotundus", "description": "as §1"}, "[4]": {"test_system": "naked crabgrass", "type": "in vivo, Digitaria nuda", "description": "as §1"}, "[5]": {"test_system": "Surinam grass", "type": "in vivo, Brachiaria decumbens", "description": "as §1"}, "[6]": {"test_system": "johnsongrass", "type": "in vivo, Sorghum halepense", "description": "as §1"}, "[7]": {"test_system": "guineagrass", "type": "in vivo, Panicum maximum", "description": "as §1"}, "[8]": {"test_system": "prickly sida", "type": "in vivo, Sida spinosa", "description": "as §1"}, "[9]": {"test_system": "Italian ryegrass", "type": "in vivo, Lolium multiflorum", "description": "as §1"}, "[10]": {"test_system": "goosegrass", "type": "in vivo, Eleusine indica", "description": "as §1"}, "[11]": {"test_system": "large crabgrass", "type": "in vivo, Digitaria sanguinalis", "description": "as §1"}, "[12]": {"test_system": "quackgrass", "type": "in vivo, Elytrigia repens", "description": "as §1"}, "[13]": {"test_system": "pitted morningglory", "type": "in vivo, Ipomoea lacunosa", "description": "as §1"}, "[14]": {"test_system": "common groundsel", "type": "in vivo, Senecio vulgaris", "description": "as §1"}, "[15]": {"test_system": "common ragweed", "type": "in vivo, Ambrosia elation", "description": "as §1"}, "[16]": {"test_system": "common purslane", "type": "in vivo, Portulaca oleracea", "description": "as §1"}, "[17]": {"test_system": "bermudagrass", "type": "in vivo, Cynodon dactylon", "description": "as §1"}}}
{"smiles": "CC(c1c(C(F)(F)F)nn(C)c1OC(F)F)S(=O)(=O)c1cccc[n+]1[O-]", "note": "(centres unmarked) [Compound 5]", "values": [{"measurement": "Plant response rating, Kochia", "setting": "[1]; 8 g ai/ha, preemergence", "result": 0}, {"measurement": "Kochia plant response rating", "setting": "[1]; 62 g ai/ha, Preemergence", "result": 40}, {"measurement": "Plant response rating, Kochia", "setting": "[1]; Preemergence, 16 g ai/ha", "result": 0}, {"measurement": "Plant response rating, Kochia", "setting": "[1]; Preemergence, 31 g ai/ha", "result": 0}, {"measurement": "Plant response rating, Sandbur", "setting": "[2]; 8 g ai/ha, preemergence", "result": 15}, {"measurement": "Plant response rating, Sandbur", "setting": "[2]; 16 g ai/ha, preemergence", "result": 75}, {"measurement": "Sandbur plant response rating", "setting": "[2]; 62 g ai/ha, Preemergence", "result": 100}, {"measurement": "Plant response rating, Sandbur", "setting": "[2]; Preemergence, 31 g ai/ha", "result": 100}, {"measurement": "Plant response rating, Purple Nutsedge", "setting": "[3]; 8 g ai/ha, preemergence", "result": 30}, {"measurement": "Purple Nutsedge plant response rating", "setting": "[3]; 62 g ai/ha, Preemergence", "result": 90}, {"measurement": "Plant response rating, Purple Nutsedge", "setting": "[3]; Preemergence, 16 g ai/ha", "result": 60}, {"measurement": "Plant response rating, Purple Nutsedge", "setting": "[3]; Preemergence, 31 g ai/ha", "result": 75}, {"measurement": "Plant response rating, Crabgrass, Naked", "setting": "[4]; 8 g ai/ha, preemergence", "result": 60}, {"measurement": "Crabgrass, Naked plant response rating", "setting": "[4]; 62 g ai/ha, Preemergence", "result": 100}, {"measurement": "Plant response rating, Crabgrass, Naked", "setting": "[4]; Preemergence, 16 g ai/ha", "result": 95}, {"measurement": "Plant response rating, Crabgrass, Naked", "setting": "[4]; Preemergence, 31 g ai/ha", "result": 100}, {"measurement": "Plant response rating, Surinam Grass", "setting": "[5]; 8 g ai/ha, preemergence", "result": 0}, {"measurement": "Plant response rating, Surinam Grass", "setting": "[5]; 16 g ai/ha, preemergence", "result": 80}, {"measurement": "Surinam Grass plant response rating", "setting": "[5]; 62 g ai/ha, Preemergence", "result": 100}, {"measurement": "Plant response rating, Surinam Grass", "setting": "[5]; Preemergence, 31 g ai/ha", "result": 90}, {"measurement": "Plant response rating, Johnsongrass", "setting": "[6]; 8 g ai/ha, preemergence", "result": 25}, {"measurement": "Johnsongrass plant response rating", "setting": "[6]; 62 g ai/ha, Preemergence", "result": 100}, {"measurement": "Plant response rating, Johnsongrass", "setting": "[6]; Preemergence, 16 g ai/ha", "result": 50}, {"measurement": "Plant response rating, Johnsongrass", "setting": "[6]; Preemergence, 31 g ai/ha", "result": 100}, {"measurement": "Plant response rating, Guineagrass", "setting": "[7]; 8 g ai/ha, preemergence", "result": 20}, {"measurement": "Guineagrass plant response rating", "setting": "[7]; 62 g ai/ha, Preemergence", "result": 100}, {"measurement": "Plant response rating, Guineagrass", "setting": "[7]; Preemergence, 16 g ai/ha", "result": 100}, {"measurement": "Plant response rating, Guineagrass", "setting": "[7]; Preemergence, 31 g ai/ha", "result": 100}, {"measurement": "Plant response rating, Prickly Sida", "setting": "[8]; 8 g ai/ha, preemergence", "result": 0}, {"measurement": "Prickly Sida plant response rating", "setting": "[8]; 62 g ai/ha, Preemergence", "result": 100}, {"measurement": "Plant response rating, Prickly Sida", "setting": "[8]; Preemergence, 16 g ai/ha", "result": 50}, {"measurement": "Plant response rating, Prickly Sida", "setting": "[8]; Preemergence, 31 g ai/ha", "result": 100}, {"measurement": "Plant response rating, Ryegrass, Italian", "setting": "[9]; 8 g ai/ha, preemergence", "result": 10}, {"measurement": "Ryegrass, Italian plant response rating", "setting": "[9]; 62 g ai/ha, Preemergence", "result": 75}, {"measurement": "Plant response rating, Ryegrass, Italian", "setting": "[9]; Preemergence, 16 g ai/ha", "result": 40}, {"measurement": "Plant response rating, Ryegrass, Italian", "setting": "[9]; Preemergence, 31 g ai/ha", "result": 60}, {"measurement": "Plant response rating, Goosegrass", "setting": "[10]; 8 g ai/ha, preemergence", "result": 10}, {"measurement": "Goosegrass plant response rating", "setting": "[10]; 62 g ai/ha, Preemergence", "result": 100}, {"measurement": "Plant response rating, Goosegrass", "setting": "[10]; Preemergence, 16 g ai/ha", "result": 85}, {"measurement": "Plant response rating, Goosegrass", "setting": "[10]; Preemergence, 31 g ai/ha", "result": 90}, {"measurement": "Plant response rating, Crabgrass, Large", "setting": "[11]; 8 g ai/ha, preemergence", "result": 10}, {"measurement": "Crabgrass, Large plant response rating", "setting": "[11]; 62 g ai/ha, Preemergence", "result": 95}, {"measurement": "Plant response rating, Crabgrass, Large", "setting": "[11]; Preemergence, 16 g ai/ha", "result": 80}, {"measurement": "Plant response rating, Crabgrass, Large", "setting": "[11]; Preemergence, 31 g ai/ha", "result": 85}, {"measurement": "Plant response rating, Quackgrass", "setting": "[12]; 8 g ai/ha, preemergence", "result": 10}, {"measurement": "Quackgrass plant response rating", "setting": "[12]; 62 g ai/ha, Preemergence", "result": 85}, {"measurement": "Plant response rating, Quackgrass", "setting": "[12]; Preemergence, 16 g ai/ha", "result": 50}, {"measurement": "Plant response rating, Quackgrass", "setting": "[12]; Preemergence, 31 g ai/ha", "result": 70}, {"measurement": "Plant response rating, Morningglory", "setting": "[13]; 8 g ai/ha, preemergence", "result": 0}, {"measurement": "Morningglory plant response rating", "setting": "[13]; 62 g ai/ha, Preemergence", "result": 80}, {"measurement": "Plant response rating, Morningglory", "setting": "[13]; Preemergence, 16 g ai/ha", "result": 50}, {"measurement": "Plant response rating, Morningglory", "setting": "[13]; Preemergence, 31 g ai/ha", "result": 50}, {"measurement": "Plant response rating, Groundsel", "setting": "[14]; 8 g ai/ha, preemergence", "result": 100}, {"measurement": "Groundsel plant response rating", "setting": "[14]; 62 g ai/ha, Preemergence", "result": 100}, {"measurement": "Plant response rating, Groundsel", "setting": "[14]; Preemergence, 16 g ai/ha", "result": 100}, {"measurement": "Plant response rating, Groundsel", "setting": "[14]; Preemergence, 31 g ai/ha", "result": 100}, {"measurement": "Plant response rating, Ragweed", "setting": "[15]; 8 g ai/ha, preemergence", "result": 50}, {"measurement": "Ragweed plant response rating", "setting": "[15]; 62 g ai/ha, Preemergence", "result": 100}, {"measurement": "Plant response rating, Ragweed", "setting": "[15]; Preemergence, 16 g ai/ha", "result": 65}, {"measurement": "Plant response rating, Ragweed", "setting": "[15]; Preemergence, 31 g ai/ha", "result": 75}, {"measurement": "Plant response rating, Purslane", "setting": "[16]; 8 g ai/ha, preemergence", "result": 0}, {"measurement": "Purslane plant response rating", "setting": "[16]; 62 g ai/ha, Preemergence", "result": 65}, {"measurement": "Plant response rating, Purslane", "setting": "[16]; Preemergence, 16 g ai/ha", "result": 35}, {"measurement": "Plant response rating, Purslane", "setting": "[16]; Preemergence, 31 g ai/ha", "result": 50}, {"measurement": "Plant response rating, Bermudagrass", "setting": "[17]; 8 g ai/ha, preemergence", "result": 25}, {"measurement": "Bermudagrass plant response rating", "setting": "[17]; 62 g ai/ha, Preemergence", "result": 100}, {"measurement": "Plant response rating, Bermudagrass", "setting": "[17]; Preemergence, 16 g ai/ha", "result": 50}, {"measurement": "Plant response rating, Bermudagrass", "setting": "[17]; Preemergence, 31 g ai/ha", "result": 100}]}
